Here are results for 15 molecules from patent publication US20240034729A9, “HETEROCYCLIC COMPOUND, INTERMEDIATE, PREPARATION METHOD THEREFOR AND APPLICATION THEREOF” (WUHAN LL SCIENCE AND TECHNOLOGY DEVELOPMENT CO., LTD., priority 2018, published 2024).

Structures are written as SMILES. Like-named read-outs stand apart in the source and are kept apart here.

This assay has as its target hP2X3 (human purinergic P2X receptor subtype 3) (Homo sapiens (Human), UniProt P56373). Description: FLIPR calcium assay, hP2X3 expressed in HEK293 cells. Format: cell-based. To be noted: read-out: P2X3 IC50.
Where [1] appears, read: HEK293 cells expressing hP2X3, agonist BZ-ATP 2.5 μM, class symbols.

Chain of hP2X3 (human purinergic P2X receptor subtype 3) (P56373 whole entry): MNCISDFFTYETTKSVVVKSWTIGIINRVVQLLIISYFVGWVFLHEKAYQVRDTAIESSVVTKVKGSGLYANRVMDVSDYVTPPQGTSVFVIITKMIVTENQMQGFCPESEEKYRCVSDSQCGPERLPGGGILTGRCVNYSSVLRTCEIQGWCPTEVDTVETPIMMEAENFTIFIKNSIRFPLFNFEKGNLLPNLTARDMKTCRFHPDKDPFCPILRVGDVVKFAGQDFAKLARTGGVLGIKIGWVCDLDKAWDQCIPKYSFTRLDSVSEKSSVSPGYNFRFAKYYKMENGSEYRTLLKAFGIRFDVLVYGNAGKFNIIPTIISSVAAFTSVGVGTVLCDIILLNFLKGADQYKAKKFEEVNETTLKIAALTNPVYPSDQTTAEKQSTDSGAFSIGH

Regarding `CCC(=O)N1CCO[C@@H](Cc2c(-c3c(F)cc(-c4nc(C#N)co4)cc3F)nc3cc(C)ccn23)C1` [Compound 121], the IC50 under setting [1] lay in the range of 200 to 5000 nM. As for `COC(=O)N1CCO[C@@H](Cc2c(-c3c(F)cc(-c4ncco4)cc3F)nc3cc(F)ccn23)C1` [Compound 122], the concentration for half-maximal inhibition (IC50) under setting [1] was in the range of 200 to 5000 nM. For `COC(=O)N1CCO[C@@H](Cc2c(-c3c(F)cc(-c4ncco4)cc3F)nc3cc(CF)ccn23)C1` [Compound 123], the half-inhibitory concentration (IC50) lay in the range of 50 to 200 nM. `COC(=O)N1CCO[C@@H](Cc2c(-c3c(F)cc(-n4nccc4C#N)cc3F)nc3cc(C)ccn23)C1` [Compound 124-2]: the half-maximal inhibitory concentration (IC50) under setting [1] is ≤ 10 nM. Regarding `COC(=O)N1CCO[C@@H](Cc2c(-c3c(F)cc(-n4ccc(C#N)n4)cc3F)nc3cc(C)ccn23)C1` [Compound 124], the concentration for half-maximal inhibition (IC50) is < 10 nM. Consider `COC(=O)N1CCO[C@@H](Cc2c(-c3c(F)cc(-n4ccc(C(=O)O)n4)cc3F)nc3cc(C)ccn23)C1` [Compound 125, (S)-1-(3,5-difluoro-4-(3-((4-(methoxycarbonyl)morpholin-2-yl)methyl)-7-methylimidazo[1,2-a]pyridin-2-yl)phenyl)-1H-pyrazole-3-carboxylic acid], for which the half-inhibitory concentration (IC50) is < 10 nM. For the molecule `COC(=O)N1CCO[C@@H](Cc2c(-c3c(F)cc(-n4ccc(C(C)(C)O)n4)cc3F)nc3cc(C)ccn23)C1` [Compound 126, methyl (S)-2-((2-(2,6-difluoro-4-(3-(2-hydroxypropan-2-yl)-1H-pyrazol-1-yl)phenyl)-7-methylimidazo[1,2-a]pyridin-3-yl)methyl)morpholine-4-carboxylate], the concentration for half-maximal inhibition (IC50) lay within 10 to 50 nM. Regarding `COC(=O)N1CCO[C@@H](Cc2c(-c3c(F)cc(-n4cc(N)cn4)cc3F)nc3cc(C)ccn23)C1` [Compound 127, methyl (S)-2-((2-(4-(4-amino-1H-pyrazol-1-yl)-2,6-difluorophenyl)-7-methylimidazo[1,2-a]pyridin-3-yl)methyl)morpholine-4-carboxylate], the IC50 is < 10 nM. Take `COC(=O)N1CCO[C@@H](Cc2c(-c3c(F)cc(-n4cc(O)cn4)cc3F)nc3cc(C)ccn23)C1` [Compound 128, methyl (S)-2-((2-(2,6-difluoro-4-(4-hydroxy-1H-pyrazol-1-yl)phenyl)-7-methylimidazo[1,2-a]pyridin-3-yl)methyl)morpholine-4-carboxylate]: the IC50 under setting [1] lay in the range of 200 to 5000 nM. With `COC(=O)N1CCO[C@@H](Cc2c(-c3c(F)cc(-n4cc(OC)cn4)cc3F)nc3cc(C)ccn23)C1` [Compound 129, methyl (S)-2-((2-(2,6-difluoro-4-(4-methoxy-1H-pyrazol-1-yl)phenyl)-7-methylimidazo[1,2-a]pyridin-3-yl)methyl)morpholine-4-carboxylate], the IC50 was 10 to 50 nM. As to `COC(=O)N1CCO[C@@H](Cc2c(-c3c(F)cc(-n4ccc(C5(C(=O)O)CC5)n4)cc3F)nc3cc(C)ccn23)C1` [Compound 130, (S)-1-(1-(3,5-difluoro-4-(3-((4-(carbomethoxy<methoxycarbonyl>)morpholin-2-yl)methyl)-7-methylimidazo[1,2-a]pyridin-2-yl)phenyl)-1H-pyrazol-3-yl)cyclopropane-1-carboxylic acid], under setting [1], the IC50 is 200 to 5000 nM. As for `COC(=O)N1CCO[C@@H](Cc2c(-c3c(F)cc(-n4ccc(C5(O)CC5)n4)cc3F)nc3cc(C)ccn23)C1` [Compound 131], the IC50 is 10 to 50 nM.

With `COC(=O)N1CCO[C@@H](Cc2c(-c3c(F)cc(-n4ccnc4)cc3F)nc3cc(F)ccn23)C1` [Compound 132], the IC50 was < 10 nM. For the molecule `COC(=O)N1CCO[C@@H](Cc2c(-c3c(F)cc(-n4ccc(S(N)(=O)=O)c4)cc3F)nc3cc(C)ccn23)C1` [Compound 134, methyl (S) 2-((2-(2,6-difluoro-4-(3-sulfamoyl-1H-pyrrol-1-yl)phenyl)-7-methylimidazo[1,2-a]pyridin-3-yl)methyl)morpholine-4-carboxylate], the concentration for half-maximal inhibition (IC50) is 10 to 50 nM. Regarding `COC(=O)N1CCO[C@@H](Cc2c(-c3c(F)cc(-n4ccc(C(C)(C)O)c4)cc3F)nc3cc(C)ccn23)C1` [Compound 135], the concentration for half-maximal inhibition (IC50) is < 10 nM.
